Laboratory results taken from PubChem BioAssay AID248 (DTP/NCI, 2004).
Values joined by “and” are separate entries in the source; they are usually repeats but may differ in a detail not shown here. Equal values may be shown once. Toxic doses and inconclusive results are not listed.

Tested on: L1210 leukemia ip in BDF1 mice, survival T/C
Assay: NCI In Vivo Anticancer Drug Screen. Data for tumor model L1210 Leukemia (intraperitoneal) in B6D2F1 (BDF1) mice
Conditions: endpoint: mean survival time, higher = longer survival
How it was run: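 Value reflects the ratio of survival in compound-treated mice to survival in vehicle-treated controls, with both groups carrying the same transplanted tumor.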

[1] = dose: 100.0 mg/kg/injection, schedule: Q01DX009 (ip), vehicle: Klucel (hydroxypropylcellulose) (HPC)
[2] = dose: 100.0 mg/kg/injection, schedule: Q04DX003 (ip), vehicle: Klucel (hydroxypropylcellulose) (HPC)
[3] = dose: 200.0 mg/kg/injection, schedule: Q01DX009 (ip), vehicle: Klucel (hydroxypropylcellulose) (HPC)
[4] = dose: 200.0 mg/kg/injection, schedule: Q04DX003 (ip), vehicle: Klucel (hydroxypropylcellulose) (HPC)
[5] = dose: 400.0 mg/kg/injection, schedule: Q01DX009 (ip), vehicle: Klucel (hydroxypropylcellulose) (HPC)
[6] = dose: 400.0 mg/kg/injection, schedule: Q04DX003 (ip), vehicle: Klucel (hydroxypropylcellulose) (HPC)
[7] = dose: 50.0 mg/kg/injection, schedule: Q01DX009 (ip), vehicle: Klucel (hydroxypropylcellulose) (HPC)
[8] = dose: 12.5 mg/kg/injection, schedule: Q01DX009 (ip), vehicle: Klucel (hydroxypropylcellulose) (HPC)
[9] = dose: 100.0 mg/kg/injection, schedule: Q04DX002 (ip), vehicle: Klucel (hydroxypropylcellulose) (HPC)
[10] = dose: 200.0 mg/kg/injection, schedule: Q04DX002 (ip), vehicle: Klucel (hydroxypropylcellulose) (HPC)
[11] = dose: 400.0 mg/kg/injection, schedule: Q04DX002 (ip), vehicle: Klucel (hydroxypropylcellulose) (HPC)
[12] = dose: 25.0 mg/kg/injection, schedule: Q01DX009 (ip), vehicle: saline
[13] = dose: 100.0 mg/kg/injection, schedule: Q04DX003 (ip), vehicle: saline with Tween-80
[14] = dose: 200.0 mg/kg/injection, schedule: Q04DX003 (ip), vehicle: saline with Tween-80
[15] = dose: 400.0 mg/kg/injection, schedule: Q04DX003 (ip), vehicle: saline with Tween-80

O=[N+]([O-])c1cccc(S(=O)(=O)N2CCN(S(=O)(=O)c3cccc([N+](=O)[O-])c3)C2)c1
T/C [1]: 95 % of control
T/C [2]: 97 % of control
T/C [3]: 103 % of control
T/C [4]: 93 % of control
T/C [5]: 97 % of control
T/C [6]: 97 % of control

BrCC(CCCc1ccccc1)CCc1ccccc1 (configuration not stated)
T/C (dose: 100.0 mg/kg/injection, schedule: Q04DX002 (ip), vehicle: saline with Tween-80): 93 % of control
T/C (dose: 200.0 mg/kg/injection, schedule: Q04DX002 (ip), vehicle: saline with Tween-80): 90 % of control
T/C (dose: 400.0 mg/kg/injection, schedule: Q04DX002 (ip), vehicle: saline with Tween-80): 101 % of control

Cc1ccc(NC(=O)OCCOc2ccc([N+](=O)[O-])cc2)c([N+](=O)[O-])c1
T/C [7]: 102 % of control
T/C [1]: 91 % of control
T/C [2]: 97 % of control
T/C [3]: 91 % of control
T/C [4]: 102 % of control
T/C [6]: 95 % of control

Cc1c([N+](=O)[O-])cc(C(=O)Cl)cc1[N+](=O)[O-]
T/C (dose: 100.0 mg/kg/injection, schedule: Q04DX003 (ip), vehicle: other): 106 % of control
T/C (dose: 200.0 mg/kg/injection, schedule: Q04DX003 (ip), vehicle: other): 109 % of control

CN1CCCC2C3=CC=C4CC(O)CCC4(C)C3CCC21C (configuration not stated)
T/C (dose: 75.0 mg/kg/injection, schedule: Q01DX001 (ip), vehicle: carboxymethylcellulose (CMC)): 98 % of control
T/C (dose: 150.0 mg/kg/injection, schedule: Q01DX001 (ip), vehicle: carboxymethylcellulose (CMC)): 101 % of control

Nc1nc2nsnc2nc1N
T/C (dose: 3.12 mg/kg/injection, schedule: Q01DX009 (ip), vehicle: water): 86 % of control
T/C (dose: 6.25 mg/kg/injection, schedule: Q01DX009 (ip), vehicle: water): 93 % of control
T/C (dose: 12.5 mg/kg/injection, schedule: Q01DX009 (ip), vehicle: water): 90 % of control
T/C (dose: 25.0 mg/kg/injection, schedule: Q01DX009 (ip), vehicle: water): 98 % of control and 106 % of control
T/C (dose: 50.0 mg/kg/injection, schedule: Q01DX009 (ip), vehicle: water): 97 % of control and 91 % of control

O=c1[nH]cccc1[N+](=O)[O-]
T/C (dose: 100.0 mg/kg/injection, schedule: Q01DX009 (ip), vehicle: saline with Tween-80): 95 % of control
T/C (dose: 200.0 mg/kg/injection, schedule: Q01DX009 (ip), vehicle: saline with Tween-80): 90 % of control
T/C (dose: 400.0 mg/kg/injection, schedule: Q01DX009 (ip), vehicle: saline with Tween-80): 95 % of control

C#CC(OC(=O)NC)(c1ccccc1)c1ccc(OC)cc1 (configuration not stated)
T/C (dose: 6.25 mg/kg/injection, schedule: Q01DX009 (ip), vehicle: Klucel (hydroxypropylcellulose) (HPC)): 112 % of control
T/C (dose: 11.0 mg/kg/injection, schedule: Q01DX006 (ip), vehicle: Klucel (hydroxypropylcellulose) (HPC)): 120 % of control
T/C [8]: 114 % of control
T/C (dose: 25.0 mg/kg/injection, schedule: Q01DX006 (ip), vehicle: Klucel (hydroxypropylcellulose) (HPC)): 115 % of control
T/C (dose: 37.0 mg/kg/injection, schedule: Q01DX006 (ip), vehicle: Klucel (hydroxypropylcellulose) (HPC)): 109 % of control
T/C [7]: 119 % of control
T/C [2]: 111 % of control

NC1CCCCC1I (configuration not stated)
T/C (dose: 75.0 mg/kg/injection, schedule: Q01DX001 (ip), vehicle: acetone): 94 % of control
T/C (dose: 150.0 mg/kg/injection, schedule: Q01DX001 (ip), vehicle: acetone): 104 % of control

O=C(O)c1ccc(Cl)cc1F
T/C [9]: 97 % of control
T/C [10]: 108 % of control
T/C [11]: 97 % of control

COC(=O)/C=C/C(=O)NC(N)=O
T/C (dose: 6.25 mg/kg/injection, schedule: Q01DX009 (ip), vehicle: saline): 93 % of control
T/C (dose: 12.5 mg/kg/injection, schedule: Q01DX009 (ip), vehicle: saline): 98 % of control
T/C [12]: 101 % of control

COc1cc(C(=O)Nc2ccc(C3=NCCN3)cc2)cc(C(=O)Nc2ccc(C3=NCCN3)cc2)c1
T/C (dose: 30.0 mg/kg/injection, schedule: Q01DX Z (ip), vehicle: saline): 211 % of control
T/C (dose: 60.0 mg/kg/injection, schedule: Q01DX Z (ip), vehicle: saline): 275 % of control
T/C (dose: 60.0 mg/kg/injection, schedule: Q01DX Z (oral), vehicle: saline): 114 % of control
T/C (dose: 120.0 mg/kg/injection, schedule: Q01DX Z (ip), vehicle: saline): 151 % of control
T/C (dose: 120.0 mg/kg/injection, schedule: Q01DX Z (oral), vehicle: saline): 119 % of control
T/C (dose: 240.0 mg/kg/injection, schedule: Q01DX Z (oral), vehicle: saline): 101 % of control
T/C (dose: 480.0 mg/kg/injection, schedule: Q01DX Z (oral), vehicle: saline): 100 % of control

C#CCN(C)C(C)=O
T/C [12]: 104 % of control
T/C (dose: 25.0 mg/kg/injection, schedule: Q04DX003 (ip), vehicle: saline): 95 % of control
T/C (dose: 50.0 mg/kg/injection, schedule: Q01DX009 (ip), vehicle: saline): 102 % of control
T/C (dose: 50.0 mg/kg/injection, schedule: Q04DX003 (ip), vehicle: saline): 101 % of control
T/C (dose: 100.0 mg/kg/injection, schedule: Q01DX009 (ip), vehicle: saline): 105 % of control
T/C (dose: 100.0 mg/kg/injection, schedule: Q04DX003 (ip), vehicle: saline): 96 % of control and 101 % of control

O=C(O)CC(NC(=O)COc1ccc(F)cc1)C(=O)O (configuration not stated)
T/C [9]: 89 % of control
T/C [10]: 89 % of control
T/C [11]: 96 % of control

O=S1(=O)c2ccc(cc2)N=CC=Nc2ccc1cc2
T/C [13]: 92 % of control
T/C [14]: 90 % of control
T/C [15]: 89 % of control

CCc1ccc(NC(=O)Nc2ccccc2C)cc1
T/C [1]: 92 % of control
T/C [2]: 93 % of control
T/C [3]: 94 % of control
T/C [4]: 93 % of control
T/C [5]: 100 % of control
T/C [6]: 94 % of control

Cc1ccc([N+](=O)[O-])cc1NC(=O)Nc1ccc([N+](=O)[O-])cc1
T/C [1]: 90 % of control
T/C [3]: 90 % of control
T/C [5]: 98 % of control

C#CCN(C)CCO
T/C [13]: 97 % of control
T/C [14]: 106 % of control
T/C [15]: 100 % of control

COc1ccc([N+](=O)[O-])cc1NC(=O)Nc1c(C)n(C)n(-c2ccccc2)c1=O
T/C [7]: 108 % of control
T/C [1]: 105 % of control
T/C [3]: 97 % of control

CCCCOP(=O)(O)OCCCC.[Cd]
T/C (dose: 3.0 mg/kg/injection, schedule: Q01DX009 (ip), vehicle: Klucel (hydroxypropylcellulose) (HPC)): 96 % of control
T/C (dose: 6.0 mg/kg/injection, schedule: Q01DX009 (ip), vehicle: Klucel (hydroxypropylcellulose) (HPC)): 96 % of control
T/C (dose: 12.0 mg/kg/injection, schedule: Q01DX009 (ip), vehicle: Klucel (hydroxypropylcellulose) (HPC)): 95 % of control
T/C [8]: 96 % of control
T/C (dose: 25.0 mg/kg/injection, schedule: Q01DX009 (ip), vehicle: Klucel (hydroxypropylcellulose) (HPC)): 94 % of control

Cc1ccc(S(=O)(=O)N2CC(O)C=Cc3ccccc32)cc1 (configuration not stated)
T/C (dose: 100.0 mg/kg/injection, schedule: Q01DX001 (ip), vehicle: carboxymethylcellulose (CMC)): 107 % of control
T/C (dose: 200.0 mg/kg/injection, schedule: Q01DX001 (ip), vehicle: carboxymethylcellulose (CMC)): 105 % of control
T/C (dose: 400.0 mg/kg/injection, schedule: Q01DX001 (ip), vehicle: carboxymethylcellulose (CMC)): 110 % of control

CCNC(=O)c1cc(NC(=O)Nc2ccc(C3=NCCN3)cc2)cc(NC(=O)Nc2ccc(C3=NCCN3)cc2)c1
T/C (dose: 62.0 mg/kg/injection, schedule: Q01DX Z (ip), vehicle: carboxymethylcellulose (CMC)): 102 % of control
T/C (dose: 125.0 mg/kg/injection, schedule: Q01DX Z (ip), vehicle: carboxymethylcellulose (CMC)): 103 % of control
T/C (dose: 250.0 mg/kg/injection, schedule: Q01DX Z (ip), vehicle: carboxymethylcellulose (CMC)): 107 % of control
T/C (dose: 500.0 mg/kg/injection, schedule: Q01DX Z (ip), vehicle: carboxymethylcellulose (CMC)): 102 % of control

Cc1ccc(NC(=O)OCCOc2c(C(C)C)cccc2C(C)C)c([N+](=O)[O-])c1
T/C [9]: 94 % of control
T/C [10]: 96 % of control
T/C [11]: 92 % of control

Cc1ccc(OS(=O)(=O)c2ccc([N+](=O)[O-])cc2)cc1
T/C [1]: 97 % of control
T/C [2]: 97 % of control
T/C [3]: 96 % of control
T/C [4]: 101 % of control
T/C [5]: 95 % of control
T/C [6]: 100 % of control
